Counter-ions that a name gives are not always drawn. Like-named read-outs stand apart in the source and are kept apart here. Each block holds one molecule with its values, some of them ahead of it.
Legend:
[1] = test system: 3,4 dihydroxyphenylacetic acid (DOPAC) in striatum; assay: In vivo neurochemistry: DOPAC in striatum; details: rat, 100 μmol/kg s.c.
Description: After the behavioural activity sessions, the rats were decapitated and their brains rapidly taken out and put on an ice-cold petri-dish. The limbic forebrain, the striatum, the frontal cortex and the remaining hemispheral parts of each rat were dissected and frozen. Each brain part was subsequently analyzed with respect to its content of monoamines and their metabolites.
The monoamine transmitter substances (NA (noradrenaline), DA (dopamine), 5-HT (serotonin)) as well as their amine (NM (normethanephrine), 3-MT (3-methoxytyramine)) and acid (DOPAC (3,4-dihydroxyphenylacetic acid), 5-HIAA (5-hydroxyindoleacetic acid), HVA (homovanillic acid)) metabolites are quantified in brain tissue homogenates by HPLC separations and electrochemical detection.
The analytical method is based on two chromatographic separations dedicated for amines or acids. Two chromatographic systems share a common auto injector with a 10-port valve and two sample loops for simultaneous injection on the two systems. Both systems are equipped with a reverse phase column (Luna C18(2), dp 3μ, 50*2 mm i.d., Phenomenex) and electrochemical detection is accomplished at two potentials on glassy carbon electrodes (MF-1000, Bioanalytical Systems, Inc.). Via a T-connection the column effluent is passed to the detection cell or to waste. […]

[2] = test system: rats pretreated with d-amphetamine; assay: Reduction of amphetamine-induced hyper-locomotion; format: in vivo, rat; details: read-out: ED50 amf (reduction of amphetamine-induced hyper-locomotion, estimated ED50 values)
Method: In this model, dopaminergic neurotransmission is increased by systemic administration of d-amphetamine at a dose that is sufficiently high to produce a large increase in locomotor activity. The ability of a compound to antagonize this hyperactivity reflects anti-dopaminergic properties, which are part of the dopaminergic stabiliser profile.
Behavioural activity was measured using eight Digiscan activity monitors (RXYZM (16) TAO, Omnitech Electronics, Columbus, Ohio, USA), connected to an Omnitech Digiscan analyzer and a Apple Macintosh computer equipped with a digital interface board (NB DIO-24, National Instruments, USA). Each activity monitor consisted of a quadratic metal frame (W×L 40×40 cm) equipped with photobeam sensors. During measurements of behavioural activity, a rat was put in a transparent acrylic cage (W×L×H, 40×40×30 cm) which in turn was placed in the activity monitor. Each activity monitor was equipped with three rows of infrared photobeam sensors, each row consisting of 16 sensors. Two rows were placed along the front and the side of the floor of the cage, at a 90° angle, and the third row was placed 10 cm above the floor to measure vertical activity. Photobeam sensors were spaced 2.5 cm apart. Each activity monitor was fitted in an identical sound and light attenuating box containing a weak house light and a fan.
Behavioural data from each activity monitor, representing the position (horizontal centre of gravity and vertical activity) of the animal at each time, were recorded at a sampling frequency of 25 Hz and collected using a custom written LABView™ application. The data from each recording session were stored and analyzed with respect to distance traveled. Each behavioural recording session lasted 60 min, starting approximately 4 min after the injection of test compound. […] The results are presented as counts/60 minutes, or counts/30 minutes, in arbitrary length units. Statistical comparisons were carried out using student's t-test vs the control group.
For most compounds, the evaluation is based on 16 amphetamine pre-treated animals over the dose range 0, 11, 33 and 100 μmol/kg s.c. in one single experiment, with complementary doses in separate experiments. Calculations are based on distance during the last 45 minutes of one hour of measurement. […] To estimate confidence levels for the parameters, the fit is repeated 100 times with a random evenly distributed squared weight (0 to 1) for every measurement value.

MK-801 pre-treated rats = assay: Locomotor activity in MK-801 pre-treated rats; format: in vivo, rat; details: MK-801 0.7 mg/kg i.p. 90 min before test compound, recorded 30-60 min after administration
Method: Another animal model of antipsychotic activity is based on administration of the glutamate antagonist MK-801. Glutamate antagonists (i.e. NMDA antagonists), can induce psychoses in man (see Psychopharmacology, 4th Generation of progress Chapter 101, p. 1205 and 1207) and induce behavioural aberrations in animals. […] In this study the NMDA antagonist MK-801 (0.7 mg/kg i.p.) was used to create a hypoglutamatergic state where the rats display abnormal, hyperactive behaviour. Compounds in the present invention dose-dependently reverse the behavioural aberration induced by MK-801 (see Table 2).
Behavioural activity was measured using eight Digiscan activity monitors (RXYZM (16) TAO, Omnitech Electronics, Columbus, Ohio, USA), connected to an Omnitech Digiscan analyzer and a Apple Macintosh computer equipped with a digital interface board (NB DIO-24, National Instruments, USA). Each activity monitor consisted of a quadratic metal frame (W×L 40×40 cm) equipped with photobeam sensors. […]
Behavioural data from each activity monitor, representing the position (horizontal centre of gravity and vertical activity) of the animal at each time, were recorded at a sampling frequency of 25 Hz and collected using a custom written LABView™ application. The data from each recording session were stored and analyzed with respect to distance traveled. […]

[3] = Metabolic stability in rat liver microsomes; format: in vitro ADME; details: 15 min incubation at 37° C., NADPH
Method: Rat liver microsomes were isolated as described by Forlin (1980) Effects of Clophen A50, 3-methylcholantrene, pregnenolone-16aq-carbonitrile and Phenobarbital on the hepatic microsomal cytochrome P-450-dependent monooxygenaser system in rainbow trout, salmo garirdneri, of different age and sex. Tox Appl Pharm. […]
1 μL of, 0.2 or 1 mM test substance diluted in water and 10 μL 20 mg/mL rat liver micro-some were mixed with 149 μL 37° C. buffer 1 and the reaction was started by addition of 40 μL 4.1 mg/mL NADPH. […] The test compound was analysed using HPLC-MS (Hewlett-Packard 1100MSD Series) with a Zorbax SB-C18 column (2.1*150 mm, 5 μm) using 0.03% formic acid and acetonitrile as mobile phase (gradient) or a Zorbax Eclipse XDB-C18 (3*75 mm, 3.5 μm) using 0.03% acetic acid and acetonitrile as mobile phase (gradient). The 15 min turnover was calculated as the fraction of test compound eliminated after 15 minutes, expressed in percent of 0 min levels, ie 100*[conc test compound at 0 min−concentration at 15 min]/conc at 0 min.

hERG ion channel = hERG ion channel (Homo sapiens, UniProt Q12809); assay: hERG affinity by Rapid ICE automated patch-clamp (HEK293 cells stably transfected with HERG cDNA)
Sequence of hERG ion channel (Q12809 whole entry): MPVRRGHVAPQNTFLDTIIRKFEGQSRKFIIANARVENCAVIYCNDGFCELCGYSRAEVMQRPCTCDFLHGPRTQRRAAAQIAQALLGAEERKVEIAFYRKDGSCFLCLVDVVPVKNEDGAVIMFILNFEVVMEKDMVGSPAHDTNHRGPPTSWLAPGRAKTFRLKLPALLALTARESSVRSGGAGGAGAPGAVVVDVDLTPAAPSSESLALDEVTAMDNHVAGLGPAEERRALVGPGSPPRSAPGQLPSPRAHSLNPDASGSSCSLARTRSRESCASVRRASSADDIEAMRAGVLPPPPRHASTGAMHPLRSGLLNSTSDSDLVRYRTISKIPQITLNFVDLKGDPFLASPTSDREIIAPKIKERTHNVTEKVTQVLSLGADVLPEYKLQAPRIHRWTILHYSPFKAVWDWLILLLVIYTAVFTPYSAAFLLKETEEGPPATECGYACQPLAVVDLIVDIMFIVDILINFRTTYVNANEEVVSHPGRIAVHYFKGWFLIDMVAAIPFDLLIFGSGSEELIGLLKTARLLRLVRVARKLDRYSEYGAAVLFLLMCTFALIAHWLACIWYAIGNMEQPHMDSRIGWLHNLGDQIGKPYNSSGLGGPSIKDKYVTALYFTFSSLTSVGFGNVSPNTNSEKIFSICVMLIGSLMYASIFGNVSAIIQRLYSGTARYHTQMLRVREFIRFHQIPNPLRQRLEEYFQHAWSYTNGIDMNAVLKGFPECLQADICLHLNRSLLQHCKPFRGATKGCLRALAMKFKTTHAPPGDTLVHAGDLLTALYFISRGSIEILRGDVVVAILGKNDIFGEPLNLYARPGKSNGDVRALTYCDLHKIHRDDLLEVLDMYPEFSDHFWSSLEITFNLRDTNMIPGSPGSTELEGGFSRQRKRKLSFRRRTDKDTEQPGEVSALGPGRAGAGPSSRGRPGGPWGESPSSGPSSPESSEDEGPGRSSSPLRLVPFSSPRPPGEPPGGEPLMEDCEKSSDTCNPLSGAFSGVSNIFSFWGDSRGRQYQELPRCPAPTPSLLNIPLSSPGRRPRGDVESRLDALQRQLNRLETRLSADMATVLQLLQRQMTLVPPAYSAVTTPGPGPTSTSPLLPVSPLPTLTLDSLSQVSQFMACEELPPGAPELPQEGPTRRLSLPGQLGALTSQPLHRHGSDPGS
Description: Rapid ICE™ (Rapid Ion Channel Electrophysiology) is an automated patch-clamp assay utilising the PatchXpress 7000A system (Axon Instruments). Rapid ICE™ assesses the effect of test substances on HERG tail current recorded from HEK293 cells stably transfected with HERG cDNA.
HERG.T.HEK (HEK293 cells stably transfected with HERG cDNA) were obtained from the University of Wisconsin. These cells are held in cryogenic storage at Quintiles and also maintained in culture. The cells are continuously maintained in and passaged using minimum essential medium supplemented with 10% foetal bovine serum, 1% non-essential amino acids, 1% sodium pyruvate and 0.4 mg/ml geneticin. For use in Rapid ICE™ studies, 4 ml of the cells are placed into falcon tubes at a density of 2.5×10^5/ml. The falcon tubes are stored in a humidified, gassed (5% CO2) incubator at 37° C. and cells are used within 2.5 h of storage. Just prior to experimentation, these cells are centrifuged at 1000 rpm for 1 min, the supernatant decanted and the cells re-suspended in 150 μl of bath solution in a 1.5 ml eppendorf tube.
The PatchXpress system is primed with appropriate extracellular (bath) and intracellular (pipette) solutions prior to conducting a study. A 16 well sealchip (Sealchip16, Aviva Bio-sciences Corp) is loaded into the system and primed before preparing cells in the bath solution suspension. The cell eppendorf is placed into the designated position and the procedure commences with the trituration and dispersion of cells into each well (recording chamber) of the sealchip. The PatchXpress system follows the general principles of conventional whole-cell patch-clamping: a high resistance seal is formed between the patch electrode and an individual cell, the membrane across the electrode tip is ruptured and the whole-cell patch-clamp configuration is established. If the quality of the cell is judged to be poor, the experiment may be terminated at this point and if necessary, the process repeated on another sealchip.
Once a stable patch has been achieved, recording commences in voltage-clamp mode, with the cell initially clamped at −80 mV. The standard voltage profile is as follows: step from −80 mV to −50 mV for 200 ms, +20 mV for 4.8 s, step to −50 mV for 5 s then step to the holding potential of −80 mV. The step from −80 mV to the test command (+20 mV) results in an outward current (i.e. current flows out of the cell) and the step from the test command (+20 mV) to −50 mV results in the tail current (the tail current represents deactivation of the current over time). […] Each value represents the average current recorded from 4 sequential voltage pulses. For each cell the effects of the test substance is determined by calculating the residual current (% control) compared with vehicle pre-treatment. […]

[4] = Oral bioavailability in rat; format: in vivo; details: plasma, oral 12.5 μmol/kg vs i.v. 5 μmol/kg, AUC ratio
Method: Experiments are performed 24 hours after implantation of arterial and venous catheters. Test compound is administered orally at 12.5 μmol/kg or intravenously at 5 μmol/kg using the venous catheters, n=3 per group. Arterial blood samples are then taken during […] at 0, 3, 9, 27, 60, 120, 180, 240, 300 and, 360 minutes after administration of the test compound. The oral bioavailability was calculated as the ratio of the AUC (Area under curve) obtained after oral administration over the AUC obtained after intravenous administration for each rat. The parameter AUC was calculated according to the following: AUC: the area under the plasma concentration versus time curve from time zero to the last concentration measured (Clast), calculated by the log/linear trapezoidal method.
The levels of test compound are measured by means of liquid chromatography-mass spectrometry (LC-MS). (Hewlett-Packard 1100MSD Series). The module include a quaternary pump system, vacuum degasser, thermostatted autosampler, thermostatted column compartment, diode array detector and API-ES spray chamber. […]
Extractions procedure: Plasma samples (0.25-0.5 ml) were diluted with water to 1 ml, and 60 pmol (100 μl) internal standard (−)-OSU6241 was added. […] The selective ion (MH^+) was monitored for each Example, and MH^+ 296 for (−)-OSU6241 ((3-[3-(ethylsulfonyl)phenyl]-1-propylpiperidine). […]

[5] = rat, test compound s.c., d-amphetamine 1.5 mg/kg i.p., distance during last 45 min of one hour

Compound: CCCN1CCC(c2ccc(Cl)c(C(F)(F)F)c2)CC1 [reference compound]
ED50 ([2]; Rattus norvegicus): 34 µmol/kg | IC50 (hERG ion channel): 0.61 µM

Compound: CCCN1CCC(c2cc(F)cc(C(F)(F)F)c2)CC1 [reference compound]
ED50 [2, 5]: 14 µmol/kg | IC50 (hERG ion channel): 1.5 µM

Compound: CCCN1CCC(c2cccc(S(C)(=O)=O)c2)CC1
ED50 ([2]; Rattus norvegicus): 52 µmol/kg

More lines, main results first:

melting point: 176 to 178 °C
Compound: CCN1CCC(c2cc(F)cc(S(C)(=O)=O)c2)CC1 (as salt: hydrochloric acid salt) [Example 2, 1-ethyl-4-[3-fluoro-5-(methylsulfonyl)phenyl]piperidine]

Turnover at 15 minutes in rat liver microsomes [3]: 5%
Compound: CCCN1CCC(c2cc(F)cc(S(C)(=O)=O)c2)CC1 [Example 1, 4-[3-fluoro-5-(methylsulfonyl)phenyl]-1-propylpiperidine]
DOPAC in striatum [1]: 318 % of control | ED50 [2, 5]: 12 µmol/kg | Locomotor activity, MK + example 100 μmol/kg (MK-801 pre-treated rats): 20858 ± 4638 (P = 0.01) counts/30 min ± SEM | IC50 (hERG ion channel): 9.8 µM

bioavailability [4]: ~85% | Turnover at 15 minutes in rat liver microsomes [3]: 0%
Compound: CCN1CCC(c2cc(F)cc(S(C)(=O)=O)c2)CC1 [Example 2, 1-ethyl-4-[3-fluoro-5-(methylsulfonyl)phenyl]piperidine]
DOPAC in striatum [1]: 292 % of control | ED50 [2, 5]: 28 µmol/kg | Locomotor activity, MK + example 100 μmol/kg (MK-801 pre-treated rats): 24012 ± 5511 (P = 0.03) counts/30 min ± SEM | IC50 (hERG ion channel): 21.7 µM

melting point: 187 to 189 °C
Compound: CCCN1CCC(c2cc(F)cc(S(C)(=O)=O)c2)CC1 (as salt: hydrochloric acid salt) [Example 1, 4-[3-fluoro-5-(methylsulfonyl)phenyl]-1-propylpiperidine]
